Experimental data: patent US20250325675A1, “APTAMER, CONJUGATE, COMPOSITION, METHOD FOR PREPARING SAME, AND USE THEREOF” (priority 2022, published 2025)

How the values were obtained:
[1] = system: U118-MG glioma cells; assay: Flow cytometry: entry of conjugates into U118-MG glioma cells in vitro; assay type: cell-based, human; details: 1 h 37°C, yeast tRNA 100 μg/mL, flow cytometry
Procedure: U118MG cells were seeded into a 96-well plate at 5×10^5 cells/well. Conjugate AP1 prepared above and yeast tRNA were respectively formulated into conjugates solution 1A, 1B, 1C, 1D, 1E, 1F, 1G, 1H, and 1I with DMEM medium, and these conjugate solutions 1A-1I comprised yeast tRNA at a final concentration of 100 μg/mL and respectively comprised conjugate AP1 at final concentrations of 5 nM, 10 nM, 20 nM, 40 nM, 60 nM, 80 nM, 100 nM, 150 nM, 200 nM, and […].
Control conjugate comparative AP10 prepared above and yeast tRNA were respectively formulated into conjugates solution 1A′, 1B′, 1C′, 1D′, 1E′, 1F′, 1G′ 1H′, and 1I′ with DMEM medium, and these conjugate solutions 1A′-1I′ comprised yeast tRNA at a final concentration of 100 μg/mL and respectively comprised control conjugate comparative AP10 at final concentrations of 5 nM, 10 nM, 20 nM, 40 nM, 60 nM, 80 nM, 100 nM, 150 nM, 200 nM, and […].
The aforementioned culture wells containing U118MG cells were respectively added with the conjugate solutions 1A-1I above in an amount of 200 μL/well and designated as test group 1A-test group 1I. The aforementioned culture wells containing U118MG cells were respectively added with the conjugate solution 1A′-1I′ above in an amount of 200 μL/well and designated as control group 1A′-control group 1I′. Another culture well containing U118MG cells was added with 200 μL DMEM medium containing yeast tRNA at a final concentration of 100 μg/mL and designated as blank control group 1J. The 96-well plate containing the above test groups and the blank control group were incubated at 37° C. for 1 h in the dark; after incubation, the supernatant of the reaction mixture of each test group and the blank control group was aspirated, and DPBS buffer (purchased from Thermo Fisher) was added to wash the plate 3 times (100 μL each time). After the washing solution was aspirated, each culture well was added with 100 μL DMEM medium to obtain a cell suspension. The supernatant was removed by centrifugation and then 500 μL DPBS buffer was added to re-suspend the cells. Flow cytometry analysis was performed with flow cytometer (BD Biosciences): 10,000 cells in each test group or the blank control group were analyzed, the fluorescence intensity distribution was determined and the mean fluorescence intensity (MFI, a.u.) was calculated. Furthermore, the mean fluorescence intensity corresponding to each final concentration of conjugates is listed in Table 4 below for comparison, and the relative fluorescence difference R is calculated according to the following equation: R=(MFIAP1−MFICAP10)/MFICAP10.
Therein, MFIAP1 represents mean fluorescence intensity of conjugate AP1 in U118-MG glioma cells, and MFICAP10 represents mean fluorescence intensity of comparative AP10 in U118-MG glioma cells.

[2] = system: SVGp12 normal astrocytes; assay: High content imaging: entry of conjugates into SVGp12 normal astrocytes; assay type: cell-based, human; details: 100 nM, 30 min 37°C
Procedure: (§1) In this experiment, the entry of conjugate AP1 provided by the present disclosure and comparative conjugate comparative AP10 into different cells was observed by a PerkinElmer High Content Imaging system (Operatta).
(§2) U118MG glioma cells, SVGp12 normal astrocytes, T98G human brain glioma cells, U251 human glioma cells, A549 human non-small cell lung cancer cells, MCF-7 human breast cancer cells, and 293T human kidney epithelial cells were all purchased from the Shanghai Cell Bank of Chinese Academy of Sciences. […] The supernatant was aspirated and DPBS buffer (purchased from Thermo Fisher) was added to wash the plate 2 times (100 μL each time).
(§3) Conjugate AP1 prepared above and yeast tRNA were respectively formulated into conjugate solution 2A with DMEM medium, and the conjugate solution 2A comprised yeast tRNA at a final concentration of 100 μg/mL and conjugate AP1 at a final concentration of 100 nM. […]
(§4) Normalization was performed according to the mean fluorescence intensity of control group 2Y, that is, subtracting the mean fluorescence intensity of control group 2Y from the fluorescence intensity of test group 2X before performing imaging.

[3] = system: U251 human glioma cells; assay: High content imaging: entry of conjugates into U251 cells; assay type: cell-based; details: 100 nM, 30 min 37°C
Procedure: as §1, §2, §3, §4

[4] = system: A549 human non-small cell lung cancer cells; assay: High content imaging: entry of conjugates into A549 cells; assay type: cell-based; details: 100 nM, 30 min 37°C
Procedure: as §1, §2, §3, §4

[5] = system: MCF-7 human breast cancer cells; assay: High content imaging: entry of conjugates into MCF-7 cells; assay type: cell-based; details: 100 nM, 30 min 37°C
Procedure: as §1, §2, §3, §4

[6] = system: 293T human renal epithelial cells; assay: High content imaging: entry of conjugates into 293T cells; assay type: cell-based; details: 100 nM, 30 min 37°C, normal cells
Procedure: as §1, §2, §3, §4

[7] = system: U118MG glioma tumor spheres; assay: High content imaging: entry into U118MG tumor spheres; assay type: cell-based, human; details: 100 nM, imaging without washing
Procedure: (§5) In this experiment, the entry of conjugate AP1 provided by the present disclosure and comparative conjugate comparative AP10 into U118MG glioma tumor spheres and A549 human non-small cell lung cancer tumor spheres was observed by a PerkinElmer High Content Imaging system (Operatta).
(§6) 80 μL fresh, sterilized and unsolidified 2% agarose was added into the culture wells of a 96-well plate. […] Half of the supernatant was aspirated every 48 h and fresh DMEM medium was added along the wall of the culture wells. After 7 days of culture, the cells were observed under the microscope to confirm that complete cell spheres were obtained, indicating successful tumor sphere cultivation.
(§7) Each culture well was added with AP1 or comparative AP10 according to the method of experimental Example 2, and imaged in a high content imaging system, with the only difference of directly performing imaging after culture without washing and performing imaging according to the measured fluorescence intensity of Cy5.

[8] = system: A549 human non-small cell lung cancer tumor spheres; assay: High content imaging: entry into A549 tumor spheres; assay type: cell-based; details: 100 nM, imaging without washing
Procedure: as §5, §6, §7

[9] = system: U118MG subcutaneous tumor; assay: In vivo distribution of conjugates with different modifications in U118MG subcutaneous tumor model mice (Experimental Example 6); set-up: species or system NOD-SCID mice; details: 3 mg/kg tail vein; 4 h to 24 h after administration
Procedure: U118MG subcutaneous tumor model mice were prepared according to the method described in experimental Example 4.
9 mice were divided into 3 groups (3 mice per group). AP2, AP3 and comparative AP12 solutions were respectively administered to each mouse of each group by tail vein injection. […] The three groups of mice were respectively designated as test group 6A, test group 6B and test group 6C. […] On Day 10 after administration, one mouse of blank control group 6Y and one mouse of test group 6A was respectively euthanized and tumor tissues were taken for fluorescence imaging, and the results are shown in FIG. 5H. In FIGS. 5A-5H, Blank represents blank control group 6Y.

[10] = system: hSTAT3 mRNA; assay: hSTAT3 mRNA inhibition by free uptake in PANC-1 cells, qPCR (Experimental Example 18); assay type: cell-based; details: PANC1 human pancreatic cancer cells, free uptake 2 μM, RNA extracted after 7 days
Procedure: PANC-1 human pancreatic cancer cells in the logarithmic growth phase were selected and digested (0.25% pancreatic enzyme). The cells were collected, centrifuged to remove the supernatant, and then resuspended in DMEM medium containing 10% FBS to be formulated into cell culture solution with a concentration of 1×10^5 cells/mL. The solutions were mixed thoroughly, seeded into a 24-well plate (with 1 mL/well, i.e. 1×10^5 cells/well).
After respectively culturing the cell solutions in different culture wells of a 24-well plate for 24 h, the supernatant was aspirated and 900 μL DMEM medium containing 10% FBS was added into each well. […]
For each reverse transcription reaction system, 5 μL of the above cDNA-containing solution was taken as the template. By using a SYBR Select Master Mix Kit (purchased from Thermo Fisher Scientific, Cat. No. 4472908), the target gene hSTAT3 and the internal control gene hGAPDH were amplified in a SteponePlus™ Real-Time fluorescence quantitative PCR Thermal Cycler (purchased from Thermo Fisher Scientific) according to the operation method the instruction. […]
For each test group and control group, the above quantitative PCR detection was performed twice.
The fluorescence quantitative data was analyzed by relative quantitative 2^−ΔΔct method, and the calculation method was as follows: […]

CY5-CfCfAGAGUfCfGCfUfGAGAUfUfCfGUfGGCfGCfUfAUfAUf (CCAGAGUCGCUGAGAUUCGUGGCGCUAUAU; listed as RNA, chemistry not fully specified) [comparative AP10, reference compound]
mean fluorescence intensity (MFI) ([1]; conjugate 5 nM): 25.4 a.u. | mean fluorescence intensity (MFI) ([1]; conjugate 10 nM): 67.4 a.u. | mean fluorescence intensity (MFI) ([1]; conjugate 20 nM): 176.4 a.u. | mean fluorescence intensity (MFI) ([1]; conjugate 40 nM): 443.4 a.u. | mean fluorescence intensity (MFI) ([1]; conjugate 60 nM): 666.4 a.u. | mean fluorescence intensity (MFI) ([1]; conjugate 80 nM): 787.4 a.u. | mean fluorescence intensity (MFI) ([1]; conjugate 100 nM): 1167.4 a.u. | mean fluorescence intensity (MFI) ([1]; conjugate 150 nM): 1251.4 a.u. | mean fluorescence intensity (MFI) ([1]; conjugate 200 nM): 1868.4 a.u. | mean fluorescence intensity (MFI) ([1]; conjugate 500 nM): 4029.4 a.u. | Cy5 fluorescence signal in cells [2]: did not show any fluorescence signal | Cy5 fluorescence signal in cells [3]: neither the tumor cells treated with comparative AP10 nor the 293T human renal epithelial cells showed any fluorescence signal | Cy5 fluorescence signal in cells [4]: neither the tumor cells treated with comparative AP10 nor the 293T human renal epithelial cells showed any fluorescence signal | Cy5 fluorescence signal in cells [5]: neither the tumor cells treated with comparative AP10 nor the 293T human renal epithelial cells showed any fluorescence signal | Cy5 fluorescence signal in cells [6]: nor the 293T human renal epithelial cells showed any fluorescence signal | Cy5 fluorescence signal in tumor spheres [7]: only the edge of the comparative AP10-treated tumor spheres showed significantly weak fluorescence signal | Cy5 fluorescence signal in tumor spheres [8]: only the edge of the comparative AP10-treated tumor spheres showed significantly weak fluorescence signal

CY5-CmsUmsGmGmAmGmUmUmCmAmGmAmCmGmUmGmUmUmGmCmUmCmUmUmCmCmGmAmUmCmsUmsCm [AP3]
fluorescence intensity in vivo / tumor [9]: still show high fluorescence intensity

CY5-UmCmUmAmUmGmGmCmUmGmCmCmGmAmUmCmUmGmGmUmCmUmCmCmAmUmGmUmAmCmGmUm [AP12]
fluorescence intensity in vivo / tumor [9]: still show high fluorescence intensity

B1: conjugate 37: siRNA sense strand 3′ terminal linked to AP2 delivery group by Spacer18-GfAfUf; Cy5 on antisense strand; SEQ ID NO: 71/48 (conjugate)
sense: CUAGAAAACUGGAUAACGUGAUCUGGAGUUCAGACGUGUUGCUCUUCCGAUCUC
antisense: ACGUUAUCCAGUUUUCUAGCC
modifications: AP2 delivery group, Spacer18 linker, Cy5; misc_feature 19 is linked to Spacer18 at 3' end
inhibition rate against hSTAT3 mRNA [10]: 33%

B2: conjugate 38: siRNA sense strand 5′ terminal linked to 2′-O-cetyl modified aptamer by four propylene phosphate ester groups; Cy5 on antisense strand; SEQ ID NO: 72/48 (conjugate)
sense: CUGGAGUUCAGACGUGUUGCUCUUCCGAUCUCUUCUAGAAAACUGGAUAACGU
antisense: ACGUUAUCCAGUUUUCUAGCC
modifications: cetyl-modified aptamer, propylene phosphate linkers, Cy5, chemistry not fully specified
inhibition rate against hSTAT3 mRNA [10]: 44%
